Laboratory results as given in US20170327559A1, “VIRAL INACTIVATION USING IMPROVED SOLVENT-DETERGENT METHOD” (Baxalta Incorporated, priority 2010, published 2017).
Several values for one entry are separate records, joined by “and”; a condition that tells them apart may be missing. Identical values can stand only once. Like-named read-outs stand apart in the source and are kept apart here.

How the values were obtained:
[1] = Temperature effects on solvent/detergent components before and after 0.2 μm filtration (HPLC); assay type: physicochemical
Experimental: In order to evaluate the influence of a lower temperature on the mixing time of solvent/detergent components, 50 mL solvent/detergent solutions were prepared by adding 0.3% (v/v) TNBP, 1.0% (v/v) polyoxyethylene octyl phenyl ether (TRITON® X-100) and 0.3% (v/v) polysorbate 80 sorbitan monooleate (TWEEN® 80) and stirring at 4±2° C. for 10, 20, or 30 minutes. As the solvent/detergent solution already contained 0.1% polysorbate 80 sorbitan monooleate (TWEEN® 80), the final concentration for this compound was of 0.4%. The concentration of TNBP and polyoxyethylene octyl phenyl ether (TRITON® X-100) were determined simultaneously by using C18 RP-HPLC with a refractive index detector (RID). The concentration of polysorbate 80 sorbitan monooleate (TWEEN® 80) was determined by C1 RP-HPLC using an evaporative light scattering detector (ELSD). For the HPLC analysis of TNBP and polyoxyethylene octyl phenyl ether (TRITON® X-100), an isocratic elution is employed using 68% methanol in water. In the assay of polysorbate 80 sorbitan monooleate (TWEEN® 80), a gradient elution from 60% methanol in water to 100% methanol is used.
To evaluate the impact of the temperature toward a potential retention of solvent/detergent conponents during the filtration step, 50 mL solvent/detergent solutions were prepared by adding 0.3% (v/v) TNBP, 1.0% (v/v) polyoxyethylene octyl phenyl ether (TRITON® X-100) and 0.3% (v/v) polysorbate 80 sorbitan monooleate (TWEEN® 80), stirring at 4±2° C. for 30 minutes and the concentration of each component was measured as described above. The solvent/detergent solutions were then processed under three different temperature conditions: 22.5° C. with a warm up period of about 8 hours; 22.5° C. with a warm up period of about 2 hours; and 4° C. without any warm-up or preheating step. At the end of the incubation period, samples were filtrated through a 0.2 μm filter and TNBP, polyoxyethylene octyl phenyl ether (TRITON® X-100) and polysorbate 80 sorbitan monooleate (TWEEN® 80) concentrations were measured by HPLC.

polysorbate 80 sorbitan monooleate [Tween 80]
S/D component concentration after 0.2 μm filtration, Mean ([1]; 4° C./2 H, n = 3): 0.41% | S/D component concentration before 0.2 μm filtration, Mean ([1]; 4° C./2 H, n = 3): 0.40% | S/D component concentration after 0.2 μm filtration ([1]; 4° C./2 H, runs 1-3): 0.40% and 0.41% | S/D component concentration before 0.2 μm filtration ([1]; 4° C./2 H, runs 1-3): 0.38% and 0.40% and 0.42% | S/D component concentration after 0.2 μm filtration, Mean ([1]; 22.5° C./2 H, n = 3): 0.41% | S/D component concentration before 0.2 μm filtration, Mean ([1]; 22.5° C./2 H, n = 3): 0.41% | S/D component concentration after 0.2 μm filtration ([1]; 22.5° C./2 H, runs 1-3): 0.38% and 0.44% and 0.41% | S/D component concentration before 0.2 μm filtration ([1]; 22.5° C./2 H, runs 1-3): 0.41% and 0.42% | S/D component concentration after 0.2 μm filtration, Mean ([1]; 22.5° C./8 H, n = 3): 0.39% | S/D component concentration before 0.2 μm filtration, Mean ([1]; 22.5° C./8 H, n = 3): 0.38% | S/D component concentration after 0.2 μm filtration ([1]; 22.5° C./8 H, runs 1-3): 0.40% and 0.39% and 0.37% | S/D component concentration before 0.2 μm filtration ([1]; 22.5° C./8 H, runs 1-3): 0.33% and 0.39% and 0.42% | S/D component concentration, Mean (mean of 10, 20, 30 min stirring at 4±2° C.): 0.42 ± 0.02% | S/D component concentration (stirring at 4±2° C. for 10 min): 0.42% | S/D component concentration (stirring at 4±2° C. for 20 min): 0.40% | S/D component concentration (stirring at 4±2° C. for 30 min): 0.44%

polyoxyethylene octyl phenyl ether [TRITON X-100]
S/D component concentration after 0.2 μm filtration [1]: 1.00% and 0.90% and 1.10% | S/D component concentration after 0.2 μm filtration, Mean [1]: 1.03% and 0.97% and 1.00% | S/D component concentration before 0.2 μm filtration [1]: 0.80% and 1.00% | S/D component concentration before 0.2 μm filtration, Mean [1]: 1.00% and 0.93% | S/D component concentration: 1.2% and 1.1% | S/D component concentration, Mean: 1.2 ± 0.06%
